Measurements reported in patent EP4745134A1 (Jiangsu Yahong Meditech Co., Ltd., priority 2023, dated 2025).

Legend:
PRMT5-MTA = PRMT5-MTA (Homo sapiens, UniProt O14744); assay: Enzymatic inhibitory activity against PRMT5-MTA (AlphaScreen); assay type: biochemical; details: read-out: IC50
Procedure, shortened: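 PRMT5/[…] (1 nM) was preincubated for 30 min at room temperature with 1 µM […] and 2.5 µM SAM, then exposed to compound (10-point, 3-fold from 1000 nM) for 15 min at 23 °C. Histone H4 substrate (5 nM) was added and reacted for 45 min at 23 °C. Symmetric dimethyl-R3 H4 was detected by AlphaScreen and IC50 calculated.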

HCT116 MTAP KO cells = assay: Inhibitory activity against cell proliferation (CellTiter Glo, 6 days), HCT116 MTAP KO; assay type: cell-based; details: for IC50: Homo sapiens, HCT-116, 144 h, HCT116 MTAP KO cells, 6 days, CellTiter Glo, read-out: HCT116 MTAP KO IC50; for Selectivity HCT 116-WT/ HCT116 MTAP KO: ratio of IC50 HCT116-WT / HCT116 MTAP KO
Procedure, shortened: (§1)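 Viability is measured by CellTiter Glo luminescence on day 7, following a 6-day treatment with compounds serially diluted 4-fold over 8 points from 10000 nM. Both lines are plated at 250 cells per well and cultured overnight beforehand.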

HCT116-WT cells = assay: Inhibitory activity against cell proliferation (CellTiter Glo, 6 days), HCT116-WT; assay type: cell-based; details: 144 h, HCT116-WT cells, 6 days, CellTiter Glo; read-out: HCT116-WT IC50
Procedure, shortened: as §1

Sequence of PRMT5-MTA (O14744 whole entry): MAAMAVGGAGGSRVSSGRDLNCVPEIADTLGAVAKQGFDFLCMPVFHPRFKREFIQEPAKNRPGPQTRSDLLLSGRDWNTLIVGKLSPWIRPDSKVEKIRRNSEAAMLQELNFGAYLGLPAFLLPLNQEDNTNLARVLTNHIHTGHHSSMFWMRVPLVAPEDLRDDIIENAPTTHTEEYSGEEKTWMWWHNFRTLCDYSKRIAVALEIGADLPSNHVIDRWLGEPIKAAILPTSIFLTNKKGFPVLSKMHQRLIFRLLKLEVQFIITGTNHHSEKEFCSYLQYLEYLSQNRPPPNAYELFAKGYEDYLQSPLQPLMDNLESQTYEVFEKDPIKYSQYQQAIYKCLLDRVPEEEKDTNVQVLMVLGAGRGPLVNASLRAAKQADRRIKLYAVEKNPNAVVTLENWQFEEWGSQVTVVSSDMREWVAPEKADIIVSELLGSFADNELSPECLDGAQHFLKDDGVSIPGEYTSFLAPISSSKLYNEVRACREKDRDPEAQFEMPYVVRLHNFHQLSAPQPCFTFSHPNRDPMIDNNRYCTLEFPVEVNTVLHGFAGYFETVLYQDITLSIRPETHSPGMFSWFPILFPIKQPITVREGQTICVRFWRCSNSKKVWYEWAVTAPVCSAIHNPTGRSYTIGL
Sequence of PRMT5-MTA (Q9BQA1 whole entry partner): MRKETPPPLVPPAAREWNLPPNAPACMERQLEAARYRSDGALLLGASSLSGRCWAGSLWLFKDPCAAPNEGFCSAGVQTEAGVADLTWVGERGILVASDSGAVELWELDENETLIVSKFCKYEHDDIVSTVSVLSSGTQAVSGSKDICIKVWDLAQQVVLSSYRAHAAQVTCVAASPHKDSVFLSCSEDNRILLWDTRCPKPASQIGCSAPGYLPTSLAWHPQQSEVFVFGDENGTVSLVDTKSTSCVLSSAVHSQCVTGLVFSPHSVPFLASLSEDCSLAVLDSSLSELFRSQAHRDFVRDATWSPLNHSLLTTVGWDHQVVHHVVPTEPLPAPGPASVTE

| Compound | IC50 (PRMT5-MTA) [nM] | IC50 (HCT116 MTAP KO cells) [nM] | Selectivity HCT 116-WT/ HCT116 MTAP KO (HCT116 MTAP KO cells) | IC50 (HCT116-WT cells) [nM] |
| --- | --- | --- | --- | --- |
| Cc1cc2nc(N)c3cnn(C)c3c2cc1C(=O)N1CC(C)(C)CN1c1ncccc1F [Example 330, (4-amino-1,7-dimethyl-1H-pyrazolo[4,3-c]quinolin-8-yl)(2-(3-fluoropyridin-2-yl)-4,4-dimethylpyrazolidin-1-yl)methanone] | 13 | 24 | 25.13 | 603 |
| Cc1cc2nc(N)c3cnn(C)c3c2cc1C(=O)N1CC(C)CN1c1cc(F)ccc1F (centres unmarked) [Example 335, (4-amino-1,7-dimethyl-1H-pyrazolo[4,3-c]quinolin-8-yl)(2-(2,5-difluorophenyl)-4-methylpyrazolidin-1-yl)methanone] | 3.3 | 15 | 42.93 | 644 |
| Cc1cc2nc(N)c3cnn(C)c3c2cc1C(=O)N1CCCN1c1ccc(C(F)(F)F)cn1 [Example 338, (4-amino-1,7-dimethyl-1H-pyrazolo[4,3-c]quinolin-8-yl)(2-(5-(trifluoromethyl)pyridin-2-yl)pyrazolidin-1-yl)methanone] | 2.8 | 153 | 24.64 | 3770 |
| Cn1ncc2c(N)nc3cc(F)c(C(=O)N4CCCN4c4ccc(C(F)(F)F)cn4)cc3c21 [Example 340, (4-amino-7-fluoro-1-methyl-1H-pyrazolo [4,3-c]quinolin-8-yl)(2-(5-(trifluoromethyl)pyridin-2-yl)pyrazolidin-1-yl)methanone] | 4.2 | 295 |  | > 10000 |
| Cc1cc2nc(N)c3cnn(C)c3c2cc1C(=O)N1CCCN1c1ncccc1F [Example 342, (4-amino-1,7-dimethyl-1H-pyrazolo[4,3-c]quinolin-8-yl)(2-(3-fluoropyridin-2-yl)pyrazolidin-1-yl)methanone] | 3.8 | 100 | 67.95 | 6800 |
| Cc1cc2nc(N)c3cnn(C)c3c2cc1C(=O)N1CCCCN1c1ccc(C(F)(F)F)cn1 [Example 343, (4-amino-1,7-dimethyl-1H-pyrazolo[4,3-c]quinolin-8-yl)(2-(5-(trifluoromethyl)pyridin-2-yl)tetrahydropyridazin-1 (2H)-yl) methanone] | 3.9 | 212 | 22.90 | 4860 |
| Cn1ncc2c(N)nc3cc(Cl)c(C(=O)N4CC5(CC5)CN4c4ncc(Br)cc4F)cc3c21 [Example 345, (4-amino-7-chloro-1-methyl-1H-pyrazolo [4,3-c]quinolin-8-yl)(6-(5-bromo-3-fluor opyridin-2-yl)-5,6-diazaspiro[2.4]heptan-5-yl)methanone] | 4.4 | 44 | 17.57 | 773 |
| Cc1cc2nc(N)c3cnn(C)c3c2cc1C(=O)N1CC(C)CN1c1ccc(F)cn1 (centres unmarked) [Example 346, (4-amino-1,7-dimethyl-1H-pyrazolo[4,3-c]quinolin-8-yl)(2-(5-fluoropyridin-2-yl)-4-methylpyrazolidin-1-yl)methanone] | 3.6 | 53 | 41.25 | 2190 |
| Cn1ncc2c(N)nc3cc(Cl)c(C(=O)N4CC5(CC5)CN4c4ncc(Cl)cc4F)cc3c21 [Example 347, (4-amino-7-chloro-1-methyl-1H-pyrazolo [4,3-c]quinolin-8-yl)(6-(5-chloro-3-fluoropyridin-2-yl)-5,6-diazaspiro[2.4]heptan-5-yl)methanone] | 7.1 | 32 | 39.88 | 1280 |
| Cc1cc2nc(N)c3cnn(C)c3c2cc1C(=O)N1CC2(CCC2)CN1c1ncccc1F [Example 348, (4-amino-1,7-dimethyl-1H-pyrazolo[4,3-c]quinolin-8-yl)(7-(3-fluoropyridin-2-yl)-6,7-diazaspiro[3.4]octan-6-yl)methanone] | 7.5 | 6.9 | 30.14 | 208 |
| Cc1cc2nc(N)c3cnn(C)c3c2cc1C(=O)N1CC(C(F)(F)F)CN1c1ncccc1F (centres unmarked) [Example 350, (4-amino-1,7-dimethyl-1H-pyrazolo[4,3-c]quinolin-8-yl)(2-(3-fluoropyridin-2-yl)-4-(trifluoromethyl)pyrazolidin-1-yl)methanone] | 3.5 | 29 | 35.38 | 1030 |
| Cn1ncc2c(N)nc3cc(Cl)c(C(=O)N4CC(C(F)(F)F)CN4c4ncccc4F)cc3c21 (centres unmarked) [Example 351, (4-amino-7-chloro-1-methyl-1H-pyrazolo [4,3-c]quinolin-8-yl)(2-(3-fluoropyridin-2-yl)-4-(trifluoromethyl)pyrazolidin-1-yl) methanone] | 4.9 | 85 | 21.59 | 1840 |
